“Also recorded” adds a separate entry of the source.
Key:
[1] = system: nuclear histone H3 citrullination; experiment: Histone H3 citrullination in PMA-activated neutrophils (immunocytochemistry); type: cell-based, human; details: PMA 20 nM, 15 minutes; peptides 1 nM, Cl-amidine 10 μM
Description: Green fluorescence=citrullinated-histone H3, magenta fluorescence=nuclear DNA (60× magnification; scale bar=20 μm). The right panel depicts Histone H3 citrullination that was quantified using IMAGEJ™ software (mean citrullinated-histone H3 pixel area per cell±SEM) (n=3). One way ANOVA with Tukey's post hoc testing, *P<0.05.
Imaging was accomplished via confocal microscopy using a FV1000 IX81 confocal microscope and FLUOVIEW™ software (OLYMPUS™). Semi-quantitation was accomplished using IMAGEJ™ software (NIH) to determine the average citrullinated histone H3 content per cell.

[2] = system: nuclear chromatin decondensation in PMNs; experiment: Nuclear decondensation assay in PMA-treated neutrophils; type: cell-based, human; details: PMA 20 nM; peptides 1 nM, Cl-amidine 10 μM, sivelestat 200 nM
Experimental: FIG. 7B is a graph depicting nuclear areas that were measured (n=4) using IMAGEJ™ software (mean nuclear pixel area per cell±SEM). Paired Student's t test, *P<0.05, § P=0.057.
FIG. 12A depicts nuclear decondensation (white arrowheads and magnified image) that were assessed as in FIGS. 7A-7E after a 1 hour preincubation in medium alone, with neutrophil elastase (NE) inhibitor sivelestat (SIVL; 200 nM), or with CRISPP or CRISPP-SCR (both 1 nM) followed by treatment with PMA (20 nM) and an additional 1 hour incubation (n=3). Green fluorescence=nuclear DNA, (60× magnification, scale bar=20 μm). Nuclear area was quantified using IMAGEJ™ software (nuclear pixel area per cell±SEM). One way ANOVA with Tukey's post hoc testing; **P<0.01, ***P<0.001.
Nuclear decondensation was identified as described (see Papayannopoulos V, et al., J Cell Biol. 2010; 191 (3):677-91). Five randomly selected high-power visual fields per sample were captured via confocal microscopy and analyzed for nuclear area using the cell-permeable, fluorescent DNA dye SYTO® Green. The nuclear pixel areas of >100 individual cells per high-power field were determined using IMAGEJ™ software (NIH).

[3] = biological target: T1, neutrophil elastase (NE) (Homo sapiens, UniProt P08246); experiment: Neutrophil elastase activity assay; type: biochemical; details: in vitro; (MeOSuc)-AAPV-(pNA) 160 μM, 3 hours, 37° C., and additional assays
T1 construct: purchased SIGMA-ALDRICH
T1 sequence (P08246 30-267): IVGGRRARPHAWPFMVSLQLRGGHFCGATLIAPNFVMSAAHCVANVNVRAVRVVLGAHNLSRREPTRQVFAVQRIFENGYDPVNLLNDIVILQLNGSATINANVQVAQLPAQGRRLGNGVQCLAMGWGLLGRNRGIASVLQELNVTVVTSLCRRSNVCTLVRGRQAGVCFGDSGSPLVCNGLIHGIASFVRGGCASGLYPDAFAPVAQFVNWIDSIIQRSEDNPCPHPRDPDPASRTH
Experimental: FIG. 12B depicts NE enzyme activity that was examined by cleavage of the synthetic substrate (MeOSuc)-AAPV-(pNA) to (MeOSuc)-AAPV and (pNA) as products detected by liquid chromatography and chromatogram peak identification by mass spectroscopy. (MeOSuc)-AAPV-(pNA) (160 μm) was incubated with NE (2 mU), sivelestat (160 μm), or NE and sivelestat (left panel) or with NE (2 mU), nNIF ([…]), or NE and nNIF (right panel) for 3 hours at 37° C. Chromatograms are offset on the X and Y axes for ease of comparison. In the presence of NE alone, the (MeOSvc)-AAPV-(pNA) peak was almost completely eliminated and (MeOSvc)-AAPV and (pNA) peaks were generated. […] In contrast, it was not inhibited by nNIF.
Synthetic fluorogenic substrate of NE, (MeOSuc)-AAPV-(pNA) (160 μM), was incubated with bioactive NE (500 nM)±the NE inhibitor, sivelestat (160 μM) or nNIF (50 nM), for 3 hours at 37° C. The reactions were quenched with 5% glacial acetic acid and centrifuged at 14,000 rpm for 5 minutes. Chromatograms were obtained using an AGILENT™ 1100 Series HPLC and a PHENOMENEX® 5 μm C18 LUNA® column (100 Å, 4.6×150 mm) over a 30 minute 10% to 90% B gradient (Buffer A 0.1% TFA in H2O, Buffer B 0.1% TFA in ACN). Mass spectra were obtained for secondary validation of the reaction products using an API® 3500 triple quadrupole mass spectrometer. Chromatograms were offset on both the X and Y axes (by 0.5 minutes and 0.1 A214, respectively) for greater visibility.

[4] = system: previously-formed NETs; experiment: Post-treatment of previously formed NETs (dismantling); type: cell-based, human; details: agent added after LPS stimulation; nNIF, CRISPP 1 nM; DNase 3.78 U/mL
Experimental: FIG. 4A is a series of images depicting neutrophils isolated from venous blood of healthy adults that were incubated in medium alone (Control) or activated with LPS (100 ng/mL). CRISPP (1 nM) was added at 0, 30, or 60 minutes after LPS, and the presence of NETs was assessed by live cell imaging as in FIG. 1A after an additional 1 hour of incubation (20× magnification; scale bar=100 μm). The images are representative of three separate experiments.
(§1) For selected experiments, primary PMNs were pre-incubated with autologous plasma, cord blood plasma, nNIF (0.2-70 nM), CRISPP (0.2-70 nM), nNIF-SCR (1 nM), or CRISPP-SCR (1 nM) for one hour prior to stimulation. After pre-incubation and/or stimulation, PMNs were gently washed with PBS and incubated with a mixture of cell permeable (SYTO® Green, MOLECULAR PROBES®) and impermeable (SYTOX® Orange, MOLECULAR PROBES®) DNA fluorescent dyes. Confocal microscopy was accomplished using a FV1000 IX81 confocal microscope and FLUOVIEW™ software (OLYMPUS™). Both 20× and 60× objectives were used. Z-series images were obtained at a step size of 1 μm over a range of 20 μm for each field. FLUOVIEW™ and ADOBE™ PHOTOSHOP™ CS2 software was used for image processing.

[5] = system: neutrophil extracellular trap (NET) formation; experiment: In vitro NET formation by stimulated human PMNs (live cell imaging, NET-associated histone H3 release); type: cell-based; details: for NET formation triggered by LPS: adult PMNs preincubated with agent, LPS 100 ng/mL, 1 hour
Experimental: as §1, with “Qualitative assessment of NET formation was performed as previously reported (see Yost C C, et al., Blood. 2009; 113 (25):6419-27 and McInturff A M, et al., Blood. 2012; 120 (15):3118-25). Briefly, primary PMNs isolated from preterm infants, healthy term infants, and healthy adults (2×10^6 cells/mL) were incubated with control buffer or stimulated with indicated agonists or bacteria for 1 hour at 37° C. in 5% CO2/95% air on glass coverslips coated with poly-L-lysine. For” for “For”
Using BSL 2 safety protocols, primary PMNs isolated from healthy adults (2×10^6 cells/mL) were incubated with mock infection buffer or live dengue virus (M010.05) as for live cell imaging. After a 1-hour incubation, the infected PMNs were fixed with 2% p-FA for 10 minutes prior to incubation with fluorescently-labeled, cell-permeable and cell-impermeable DNA dyes, and imaged as for live cell imaging using confocal microscopy.
NET-associated histone H3 content was determined as previously described (see McInturff A M, et al., Blood. 2012; 120 (15):3118-25). After live cell imaging of control and stimulated primary PMNs (2×10^6/mL; various agonists), the cells were incubated with PBS containing DNase (40 U/mL) for 15 minutes at room temperature to break down and release NETs formed in response to stimulation. The supernatant was gently removed and centrifuged at 420×g for 5 minutes. The cell-free supernatant was then mixed 3:1 with 4× Laemmli buffer prior to western blotting. A polyclonal primary antibody against human histone H3 protein (CELL SIGNALING®) and infrared-conjugated secondary antibodies (LI-COR®) were used. Imaging and densitometry were performed on the ODYSSEY® infrared imaging system)(LI-COR®). This assay was previously validated as a surrogate for NET formation under in vitro conditions (see McInturff A M, et al., Blood. 2012; 120 (15):3118-25) as employed in the present studies.
Without being bound by any specific theory, it was hypothesized that placentally expressed HTRA1, a serine protease, regulates the formation of NET-inhibitory peptides through cleavage of AAT. To test this hypothesis, term and preterm placenta were assessed for HTRA1 expression via western blotting. HTRA1 and AAT plasma expression from term and preterm infants and adults were determined by ELISA. Bioactive (0.5 μg) or placental eluted HTRA1 was incubated with AAT (8 μM) for 18 hours at 37° C. Carboxy-terminus fragments of AAT were detected using western blotting and mass spectrometry. The reaction products were incubated for 1 hour with PMNs isolated from healthy adults prior to LPS stimulation (100 ng/mL) and assessed for NET formation using live cell imaging. Reactive oxygen species were assessed using flow cytometry, chemotaxis using a modified Boyden chamber assay, and bacterial killing using E. coli.

[6] = biological target: T2, recombinant PAD4 (Homo sapiens, UniProt Q9UM07); experiment: Cell-free PAD4 deimination assay; type: biochemical; details: initial comparison of NRPs
T2 construct: purchased CAYMAN
Experimental: One way ANOVA with Tukey's post hoc testing, ***P<0.001.
nNIF inhibition of PAD4 activity was determined using a PAD4 inhibitor screening assay kit (CAYMAN™). Briefly, nNIF (1 nM) was incubated with recombinant PAD4 and PAD4 enzyme substrate (2 mM) in PAD4 assay reagent for 30 minutes at 37° C. […] The reaction was stopped with PAD4 Stop Solution and detected using an included ammonia detector assay. Ammonia detector fluorescence was measured at 470 nm following excitation at 405 nm on a SPECTRAMAX™ M5 fluorescence plate reader (MOLECULAR DEVICES™).

T2 sequence (Q9UM07 whole entry): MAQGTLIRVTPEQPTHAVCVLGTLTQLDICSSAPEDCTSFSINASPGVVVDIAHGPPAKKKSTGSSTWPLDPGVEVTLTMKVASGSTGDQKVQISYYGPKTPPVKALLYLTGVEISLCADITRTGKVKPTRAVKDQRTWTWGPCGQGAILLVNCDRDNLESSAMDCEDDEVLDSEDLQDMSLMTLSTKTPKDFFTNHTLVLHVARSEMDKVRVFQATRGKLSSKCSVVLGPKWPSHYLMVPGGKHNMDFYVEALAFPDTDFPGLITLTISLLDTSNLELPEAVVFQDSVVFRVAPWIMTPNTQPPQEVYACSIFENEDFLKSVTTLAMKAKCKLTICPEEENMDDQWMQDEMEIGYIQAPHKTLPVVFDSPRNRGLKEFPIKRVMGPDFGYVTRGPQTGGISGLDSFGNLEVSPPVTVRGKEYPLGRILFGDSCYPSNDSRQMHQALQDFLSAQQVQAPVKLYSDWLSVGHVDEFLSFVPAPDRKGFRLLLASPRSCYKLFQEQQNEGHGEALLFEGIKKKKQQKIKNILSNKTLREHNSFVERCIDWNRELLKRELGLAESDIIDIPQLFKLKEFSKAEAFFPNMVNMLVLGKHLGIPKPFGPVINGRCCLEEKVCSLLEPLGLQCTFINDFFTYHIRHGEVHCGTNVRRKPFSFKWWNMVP

NC(=O)[C@H](CCCN=C(N)CCl)NC(=O)c1ccccc1 [Cl-amidine, reference compound]
nuclear histone H3 citrullination [1]: inhibited | nuclear decondensation (number of decondensed nuclei) [2]: blocked nuclear decondensation

CC(C)(C)C(=O)Oc1ccc(S(=O)(=O)Nc2ccccc2C(=O)NCC(=O)O)cc1 [sivelestat, reference compound]
NE activity (substrate cleavage) [3]: inhibited but not eliminated | nuclear decondensation (number of decondensed nuclei) [2]: blocks nuclear decondensation

DNase [reference compound]
degradation or dismantling of previously-formed NETs [4]: dismantled

LNTNKTKMGVQFPKMPFFKQIPVNSLEFV (Scrambled Peptide Control) [nNIF-SCR, scrambled control peptide of nNIF, reference compound]
NET formation triggered by LPS [5]: does not

MFLEAIPMSIPPEVKFNKPFVFLMIEQNTKSPLFMLKVVS (listed as Homo sapiens) [A1ATm^358]
order of potency of inhibition of PAD4 [6]: nNIF ≈CRISPP>A1ATm^358 | NET formation triggered by LPS [5]: inhibits NET formation, although with lesser potency than nNIF; also recorded: concentration-dependent pattern of inhibition | relative inhibition of NETosis (order of potency) ([5]; initial comparison of NRPs): nNIF ≈CRISPP>A1ATm^358

PMVSVAMMLSENIFKLPEVKSVPTEFFPKFINMKLLPFQI (Scrambled Peptide Control) [A1ATm^358-SCR, scrambled A1ATm^358, reference compound]
NET formation triggered by LPS [5]: not

SIPPEVKFNKPFVFLMIEQNTKSPLFMGKWNPTQK (listed as Homo sapiens) [HTRA1-CF, synthesized peptide generated by cleavage of A1AT by HTRA1]
NET formation (FIG. 14) ([5]; agonist not stated): inhibits NET formation

alpha-1-antitrypsin [full-length A1AT]
NET formation triggered by LPS [5]: did not inhibit NET formation

recombinant A1AT: active full-length recombinant A1AT from SIGMA-ALDRICH
NET formation triggered by LPS [5]: did not inhibit NET formation

Source: patent US10857201B2, “NNIF and nNIF-related peptides and related methods” (UNIVERSITY OF UTAH RESEARCH FOUNDATION, priority 2016, dated 2020)
